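These data come from cells grown in 96-well plates and exposed to compound for 48 hours at five concentrations. GI50 is the concentration that inhibits growth by half.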 Calls of active or inactive are those of the source. Rule as the data show it: active = GI50 up to about 1.1 µM and inactive = higher.
How the values were obtained:
Test in all cases: inhibition of tumour cell growth, NCI panel, 48 h
786-0 = test system: 786-0
A498 = test system: A498
A549 = test system: A549
CAKI-1 = test system: CAKI-1
EKVX = test system: EKVX
HCT-116 = test system: HCT-116
HOP-62 = test system: HOP-62
K562 = test system: K562
KM12 = test system: KM12
LOX IMVI = test system: LOX IMVI
M14 = test system: M14
OVCAR-4 = test system: OVCAR-4
SF-295 = test system: SF-295
SN12C = test system: SN12C
SNB-19 = test system: SNB-19
SNB-75 = test system: SNB-75
T47D = test system: T47D
UO-31 = test system: UO-31
CCRF-CEM = test system: CCRF-CEM

Measured: GI50

NCCSCCc1ccccc1
inactive: 786-0 > 100 µM | A498 > 100 µM | A549 > 100 µM | CAKI-1 > 100 µM | EKVX > 100 µM | HCT-116 > 100 µM | HOP-62 > 100 µM | K562 > 100 µM | KM12 > 100 µM | LOX IMVI > 100 µM | M14 > 100 µM | OVCAR-4 > 100 µM | SF-295 > 100 µM | SN12C > 100 µM | SNB-19 > 100 µM | SNB-75 > 100 µM | T47D 55.1 µM | UO-31 > 100 µM

O=C1Cc2c([nH]c3ccc(Br)cc23)-c2cc(Br)ccc2N1
inactive: 786-0 > 100 µM | A498 > 100 µM | A549 > 100 µM | CAKI-1 > 100 µM | CCRF-CEM > 100 µM | EKVX > 100 µM | K562 > 100 µM | KM12 > 100 µM | LOX IMVI > 100 µM | M14 > 100 µM | OVCAR-4 > 100 µM | SF-295 > 100 µM | SNB-19 > 100 µM | T47D > 100 µM | UO-31 > 100 µM

NS(=O)(=O)c1nnc(NS(=O)(=O)c2ccccc2[N+](=O)[O-])s1
inactive: 786-0 > 100 µM | A498 > 100 µM | A549 > 100 µM | CAKI-1 > 100 µM | EKVX > 100 µM | HCT-116 > 100 µM | HOP-62 > 100 µM | K562 > 100 µM | KM12 > 100 µM | M14 > 100 µM | OVCAR-4 > 100 µM | SF-295 > 100 µM | SNB-19 > 100 µM | SNB-75 > 100 µM | T47D > 100 µM | UO-31 > 100 µM

COc1ccc2cc1Oc1ccc(cc1)CC1c3cc(OC)c(cc3CCN1C)Oc1c(OC)c(OC)cc3c1C(C2)N(C)CC3 (centres undefined)
inactive: 786-0 13.1 µM | A498 10.6 µM | A549 17.5 µM | CAKI-1 11.2 µM | CCRF-CEM 17.7 µM | EKVX 12.2 µM | HCT-116 19.1 µM | K562 7.94 µM | KM12 12.7 µM | LOX IMVI 9.98 µM | M14 4.91 µM | OVCAR-4 10.6 µM | SF-295 9.06 µM | SN12C 9.02 µM | SNB-19 12.7 µM | SNB-75 8.63 µM | T47D 9.93 µM | UO-31 9.42 µM

C=C(C)C1CC2(C)C(C)CC(OC(=O)/C(C)=C\C)CC2C(OC(=O)/C(C)=C\C)C1O (centres undefined)
inactive: 786-0 > 100 µM | A498 > 100 µM | A549 39.5 µM | CAKI-1 80.7 µM | CCRF-CEM 20.8 µM | EKVX 67 µM | HCT-116 56.1 µM | K562 > 10 µM | KM12 38.6 µM | LOX IMVI 38.6 µM | M14 > 100 µM | OVCAR-4 > 100 µM | SN12C 62.2 µM | SNB-19 25.1 µM | SNB-75 22 µM | T47D 43.2 µM | UO-31 39.8 µM

Nc1c(/C=C/c2cc3cc(C4=NCCN4)ccc3o2)[nH]c2cc(C3=NCCN3)ccc12
inactive: 786-0 37.3 µM | A498 > 100 µM | A549 41.5 µM | CAKI-1 38.3 µM | EKVX 40.1 µM | HCT-116 29.4 µM | HOP-62 34.2 µM | K562 41.3 µM | KM12 34.4 µM | LOX IMVI 38.8 µM | M14 38.5 µM | OVCAR-4 47.1 µM | SF-295 34.3 µM | SN12C 33.2 µM | SNB-19 66.2 µM | SNB-75 63.5 µM | T47D 46.5 µM | UO-31 40.6 µM

CC(C)(C)OC/C=C(/CO)[C@@H]1C=C[C@H](O)C1
inactive: 786-0 > 100 µM | A498 > 100 µM | A549 > 100 µM | CAKI-1 > 100 µM | CCRF-CEM > 100 µM | EKVX > 100 µM | HCT-116 > 100 µM | HOP-62 > 100 µM | K562 > 100 µM | KM12 > 100 µM | M14 > 100 µM | OVCAR-4 > 100 µM | SF-295 > 100 µM | SN12C > 100 µM | SNB-19 > 100 µM | SNB-75 > 100 µM | T47D > 100 µM | UO-31 > 100 µM

CCOP(=O)(COCCn1ncc(=O)[nH]c1=O)OCC
inactive: A498 > 100 µM | A549 > 100 µM | CAKI-1 > 100 µM | CCRF-CEM > 100 µM | EKVX > 100 µM | HOP-62 > 100 µM | KM12 > 100 µM | LOX IMVI > 100 µM | M14 > 100 µM | SN12C > 100 µM | SNB-19 > 100 µM | SNB-75 > 100 µM | T47D > 100 µM | UO-31 > 100 µM

CC1C(c2ccccc2)O[B-](F)(c2ccccc2)[NH+]1C (centres undefined)
inactive: 786-0 > 100 µM | A498 > 100 µM | A549 > 100 µM | CCRF-CEM > 100 µM | EKVX > 100 µM | HCT-116 > 100 µM | HOP-62 > 100 µM | K562 > 100 µM | LOX IMVI > 100 µM | M14 > 100 µM | OVCAR-4 > 100 µM | SF-295 > 100 µM | SN12C > 100 µM | SNB-19 > 100 µM | SNB-75 37.2 µM | T47D > 100 µM | UO-31 > 100 µM

Nc1ncc2c(n1)-c1ccccc1OC2NC1CC1 (centres undefined)
inactive: 786-0 > 100 µM | A498 > 100 µM | A549 > 100 µM | CAKI-1 > 100 µM | CCRF-CEM > 100 µM | EKVX 97.5 µM | HCT-116 > 100 µM | KM12 > 100 µM | LOX IMVI > 100 µM | M14 > 100 µM | OVCAR-4 > 100 µM | SF-295 > 100 µM | SN12C > 100 µM | SNB-19 > 100 µM | SNB-75 > 100 µM | T47D > 100 µM | UO-31 > 100 µM

CSc1nc(NC2CCCC2)c2cc[nH]c2n1
inactive: 786-0 95.1 µM | A498 22.6 µM | A549 50.6 µM | CAKI-1 > 100 µM | CCRF-CEM 47.4 µM | EKVX 31.2 µM | HCT-116 35.2 µM | HOP-62 > 100 µM | K562 32.9 µM | KM12 54.6 µM | LOX IMVI 37.6 µM | M14 65 µM | OVCAR-4 48.5 µM | SF-295 34.8 µM | SN12C > 100 µM | SNB-19 66.7 µM | T47D 61.1 µM | UO-31 48.1 µM

COc1cc(S(=O)(=O)Nc2ccc(-c3csc(N4C(=O)C(C)SC4c4ccccc4O)n3)cc2)ccc1Cl (centres undefined)
inactive: 786-0 35.1 µM | A498 > 100 µM | A549 > 100 µM | CAKI-1 85.9 µM | CCRF-CEM 25.9 µM | EKVX 28.8 µM | HCT-116 30.1 µM | HOP-62 82.6 µM | K562 32.8 µM | KM12 29.7 µM | LOX IMVI 29.9 µM | M14 40.2 µM | SF-295 59.3 µM | SN12C 40.9 µM | SNB-19 > 100 µM | SNB-75 28.8 µM | T47D 13.3 µM | UO-31 38.6 µM

CO[P@@]1(=O)O[C@@H](c2ccccc2)[C@H](O)[C@@]1(O)c1ccccc1
inactive: 786-0 > 100 µM | A498 > 100 µM | A549 > 100 µM | CAKI-1 > 100 µM | CCRF-CEM > 100 µM | EKVX > 100 µM | HCT-116 > 100 µM | K562 > 100 µM | KM12 > 100 µM | LOX IMVI > 100 µM | M14 > 100 µM | OVCAR-4 > 100 µM | SF-295 > 100 µM | SN12C > 100 µM | SNB-19 > 100 µM | SNB-75 > 100 µM | T47D > 100 µM | UO-31 > 100 µM

CC(C)(Cl)C(Br)CCC(C)(Cl)C(Br)CBr (centres undefined)
inactive: 786-0 24.5 µM | A498 22.5 µM | A549 29.8 µM | CCRF-CEM 18.8 µM | EKVX 32.1 µM | HCT-116 18.8 µM | HOP-62 24.9 µM | K562 22.5 µM | M14 34.5 µM | OVCAR-4 28.3 µM | SF-295 20.2 µM | SN12C 22.1 µM | SNB-19 39.4 µM | SNB-75 25.1 µM | T47D 30.5 µM | UO-31 31.9 µM

CCOC(=O)N1c2ccccc2S(=O)(=O)c2ccccc21
inactive: 786-0 > 100 µM | A498 > 100 µM | A549 > 100 µM | CAKI-1 > 100 µM | CCRF-CEM > 100 µM | EKVX > 100 µM | HCT-116 > 100 µM | HOP-62 > 100 µM | K562 > 100 µM | KM12 > 100 µM | LOX IMVI > 100 µM | M14 > 100 µM | OVCAR-4 > 100 µM | SF-295 > 100 µM | SN12C > 100 µM | SNB-19 > 100 µM | T47D 67.8 µM | UO-31 > 100 µM

O=C(Nc1ccc(Cl)cc1)C(=O)C1=C(O)c2ccccc2OC1
inactive: 786-0 > 100 µM | A498 > 100 µM | A549 > 100 µM | CAKI-1 > 100 µM | CCRF-CEM > 100 µM | EKVX > 100 µM | HCT-116 > 100 µM | K562 > 100 µM | KM12 80.5 µM | LOX IMVI > 100 µM | M14 > 100 µM | OVCAR-4 > 100 µM | SF-295 > 100 µM | SN12C > 100 µM | SNB-19 > 100 µM | SNB-75 33.1 µM | T47D > 100 µM | UO-31 > 100 µM

Reference: ChEMBL document CHEMBL1201862, “PubChem BioAssay data set” (2004)
